In experiment [1] the target is Tubulin beta chain (Bos taurus) (UniProt Q6B856). The experiment in a line: Effect on microtubule stabilization isolated from bovine brain.
The target is the same in experiment [2]. As to the kind of experiment: Compound was tested for its effect on microtubule stabilization isolated from bovine brain; NS: not significant.

Our source for the Relative stability values is ChEMBL document CHEMBL1131541, “New synthetic inhibitors of microtubule depolymerization” (1998).

Calls of active or inactive are those of the source. The calls are words filed in the database; no cut-off is given here.

Tubulin beta chain (Bos taurus), sequence (Q6B856 whole entry): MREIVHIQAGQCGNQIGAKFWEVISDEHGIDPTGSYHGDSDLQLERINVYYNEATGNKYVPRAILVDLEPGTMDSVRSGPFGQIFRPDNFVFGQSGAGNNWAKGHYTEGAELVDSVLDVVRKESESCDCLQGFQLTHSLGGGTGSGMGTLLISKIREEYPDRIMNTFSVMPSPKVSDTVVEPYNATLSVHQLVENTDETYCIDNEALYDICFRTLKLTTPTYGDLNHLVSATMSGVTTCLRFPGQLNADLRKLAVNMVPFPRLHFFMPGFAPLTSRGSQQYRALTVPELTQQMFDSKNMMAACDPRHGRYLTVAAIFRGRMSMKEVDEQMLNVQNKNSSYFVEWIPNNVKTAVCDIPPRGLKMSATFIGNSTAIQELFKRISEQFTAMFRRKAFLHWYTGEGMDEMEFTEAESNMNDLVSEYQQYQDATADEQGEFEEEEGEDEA

Regarding `C=C1C[C@@]23O[C@]2(c2ccccc21)C1CC(OC(=O)[C@H](O)[C@@H](NC(=O)CC(C)C)c2ccccc2)C3(C)C1(C)C` (some centres not stated), in experiment [1], the Relative stability is 101%.

Regarding `C=C1C[C@@]23O[C@]2(c2ccccc21)C1CC(OC(=O)[C@H](O)[C@@H](NC(=O)OCC)c2cccnc2)C3(C)C1(C)C` (some centres not stated), in experiment [1], the Relative stability worked out at 65%.

On to `COC(=O)N[C@@H](c1ccncc1)[C@@H](O)C(=O)OC1CC2C(C)(C)C1(C)[C@@]13C[C@](O)(COC(C)=O)c4ccccc4[C@@]21O3` (some centres not stated), for which the Relative stability in experiment [1] is 116%.

For `C=C1C[C@@]23O[C@]2(c2ccccc21)C1CC(OC(=O)[C@H](O)[C@@H](NC(=O)OC)c2ccccc2)C3(C)C1(C)C` (some centres not stated), the Relative stability in experiment [1] is 164%.

For the compound `C=C1C[C@@]23O[C@]2(c2ccccc21)C1CC(OC(=O)[C@H](O)[C@@H](NC(=O)OCC)c2ccc(Cl)cc2)C3(C)C1(C)C` (some centres not stated), the Relative stability in experiment [1] is 163%.

As for `CCOC(=O)N[C@@H](c1ccncc1)[C@@H](O)C(=O)OC1CC2C(C)(C)C1(C)[C@@]13C[C@H](C)c4ccccc4[C@@]21O3` (some centres not stated), the Relative stability in experiment [1] came out at 1300%.

Take `CCNC(=O)N[C@@H](c1ccccc1)[C@@H](O)C(=O)OC1CC2C(C)(C)C1(C)[C@@]13C[C@H](C)c4ccccc4[C@@]21O3` (some centres not stated): in experiment [2], the Relative stability entry was “inactive”.

For the compound `COC(=O)N[C@@H](c1ccccc1)[C@@H](O)C(=O)OC1CC2C(C)(C)C1(C)[C@@]13C[C@H](C)c4ccccc4[C@@]21O3` (some centres not stated), the Relative stability in experiment [1] came out at 244%.

As to `C[C@H]1C[C@@]23O[C@]2(c2ccccc21)C1CC(OC(=O)[C@H](O)[C@@H](NC(=O)OC(C)(C)C)c2ccccc2)C3(C)C1(C)C` (some centres not stated), in experiment [1], the Relative stability is 148%.

With `C=C1C[C@@]23O[C@]2(c2ccccc21)C1CC(OC(=O)[C@H](O)[C@@H](NC(=O)OCC)c2ccc(C)cc2)C3(C)C1(C)C` (some centres not stated), the Relative stability in experiment [1] amounted to 142%.

As to `CCOC(=O)N[C@@H](c1ccc(Cl)cc1)[C@@H](O)C(=O)OC1CC2C(C)(C)C1(C)[C@@]13C[C@H](C)c4ccccc4[C@@]21O3` (some centres not stated), in experiment [1], the Relative stability stood at 193%.

Regarding `COC(=O)N[C@@H](c1ccsc1)[C@@H](O)C(=O)OC1CC2C(C)(C)C1(C)[C@@]13CC(C)c4ccccc4[C@@]21O3` (some centres not stated), the Relative stability in experiment [1] is 316%.

Consider `CCOC(=O)N[C@@H](c1ccncc1)[C@@H](O)C(=O)OC1CC2C(C)(C)C1(C)[C@@]13C[C@](O)(CO)c4ccccc4[C@@]21O3` (some centres not stated), for which the Relative stability in experiment [1] worked out at 327%.

On to `CCCCOC(=O)N[C@@H](c1ccc(O)cc1)[C@@H](O)C(=O)OC1CC2C(C)(C)C1(C)[C@@]13CC(C)c4ccccc4[C@@]21O3` (some centres not stated), for which, in experiment [1], the Relative stability was 80%.

As to `C=C1C[C@@]23O[C@]2(c2ccccc21)C1CC(OC(=O)[C@H](O)[C@@H](NC(=O)OCC)c2ccc(F)cc2)C3(C)C1(C)C` (some centres not stated), the Relative stability in experiment [1] was 152%.

For `CCOC(=O)N[C@@H](c1ccoc1)[C@@H](O)C(=O)OC1CC2C(C)(C)C1(C)[C@@]13C[C@H](C)c4ccccc4[C@@]21O3` (some centres not stated), the Relative stability in experiment [1] was found to be 190%.

Turning to `COC(=O)N[C@@H](c1ccc(O)cc1)[C@@H](O)C(=O)OC1CC2C(C)(C)C1(C)[C@@]13CC(C)c4ccccc4[C@@]21O3` (some centres not stated), the Relative stability in experiment [1] worked out at 293%.

`CCOC(=O)N[C@@H](c1ccccc1)[C@@H](O)C(=O)OC1CC2C(C)(C)C1(C)[C@@]13C[C@](O)(COC(C)=O)c4ccccc4[C@@]21O3` (some centres not stated): the Relative stability in experiment [1] is 22%.

For `CCCC(=O)N[C@@H](c1ccncc1)[C@@H](O)C(=O)OC1CC2C(C)(C)C1(C)[C@@]13CC(C)c4ccccc4[C@@]21O3` (some centres not stated), in experiment [1], the Relative stability worked out at 862%.

As for `CCOC(=O)N[C@@H](c1ccccc1)[C@@H](O)C(=O)OC1CC2C(C)(C)C1(C)[C@@]13C[C@@H](C)c4ccccc4[C@@]21O3` (some centres not stated), in experiment [2], the Relative stability entry is “inactive”.

Take `CCCC(=O)N[C@@H](c1ccccc1)[C@@H](O)C(=O)OC1CC2C(C)(C)C1(C)[C@@]13C[C@H](C)c4ccccc4[C@@]21O3` (some centres not stated): the Relative stability in experiment [1] stood at 168%.

Regarding `C=C1C[C@@]23O[C@]2(c2ccccc21)C1CC(OC(=O)[C@H](O)[C@@H](NC(=O)OCC)c2ccc(O)cc2)C3(C)C1(C)C` (some centres not stated), in experiment [1], the Relative stability is 130%.

`CCOC(=O)N[C@@H](c1ccc(C)cc1)[C@@H](O)C(=O)OC1CC2C(C)(C)C1(C)[C@@]13C[C@H](C)c4ccccc4[C@@]21O3` (some centres not stated): the Relative stability in experiment [1] was determined as 152%.

Consider `C=C1C[C@@]23O[C@]2(c2ccccc21)C1CC(OC(=O)[C@H](O)[C@@H](NC(C)=O)c2ccccc2)C3(C)C1(C)C` (some centres not stated), for which, in experiment [1], the Relative stability worked out at 89%.

In the case of `C=C1C[C@@]23O[C@]2(c2ccccc21)C1CC(OC(=O)[C@H](O)[C@@H](NC(=O)NC(C)(C)C)c2ccccc2)C3(C)C1(C)C` (some centres not stated), in experiment [1], the Relative stability came out at 92%.

For `CCOC(=O)N[C@@H](c1ccsc1)[C@@H](O)C(=O)OC1CC2C(C)(C)C1(C)[C@@]13C[C@H](C)c4ccccc4[C@@]21O3` (some centres not stated), the Relative stability in experiment [1] is 788%.

On to `CCCCNC(=O)N[C@@H](c1ccccc1)[C@@H](O)C(=O)OC1CC2C(C)(C)C1(C)[C@@]13C[C@H](C)c4ccccc4[C@@]21O3` (some centres not stated), for which the Relative stability in experiment [1] came out at 130%.

For `CCOC(=O)N[C@@H](c1ccc(OC)cc1)[C@@H](O)C(=O)OC1CC2C(C)(C)C1(C)[C@@]13C[C@H](C)c4ccccc4[C@@]21O3` (some centres not stated), in experiment [1], the Relative stability was 125%.

For `CCOC(=O)N[C@@H](c1ccc(O)cc1)[C@@H](O)C(=O)OC1CC2C(C)(C)C1(C)[C@@]13C[C@H](C)c4ccccc4[C@@]21O3` (some centres not stated), in experiment [1], the Relative stability is 306%.

For `C=C1C[C@@]23O[C@]2(c2ccccc21)C1CC(OC(=O)[C@H](O)[C@@H](NC(=O)NC(C)C)c2ccccc2)C3(C)C1(C)C` (some centres not stated), in experiment [1], the Relative stability is 103%.

Consider `C=C1C[C@@]23O[C@]2(c2ccccc21)C1CC(OC(=O)[C@H](O)[C@@H](NC(=O)OCC)c2ccncc2)C3(C)C1(C)C` (some centres not stated), for which, in experiment [1], the Relative stability came to 423%.

As to `C=C1C[C@@]23O[C@]2(c2ccccc21)C1CC(OC(=O)[C@H](O)[C@@H](NC(=O)OCC)c2cccs2)C3(C)C1(C)C` (some centres not stated), the Relative stability in experiment [1] is 215%.

As to `CCOC(=O)N[C@@H](c1ccccc1)[C@@H](O)C(=O)OC1CC2C(C)(C)C1(C)[C@@]13C[C@](O)(CO)c4ccccc4[C@@]21O3` (some centres not stated), the Relative stability in experiment [1] is 20%.

Take `CCOC(=O)N[C@@H](c1ccccc1)[C@@H](O)C(=O)OC1CC2C(C)(C)C1(C)[C@@]13C[C@H](C)c4ccccc4[C@@]21O3` (some centres not stated): the Relative stability in experiment [1] was 209%.

For the compound `C=C1C[C@@]23O[C@]2(c2ccccc21)C1CC(OC(=O)[C@H](O)[C@@H](NC(=O)OC(C)(C)C)c2ccccc2)C3(C)C1(C)C` (some centres not stated), in experiment [1], the Relative stability was 27%.

Consider `COC(=O)N[C@@H](c1ccncc1)[C@@H](O)C(=O)OC1CC2C(C)(C)C1(C)[C@@]13C[C@]4(CO4)c4ccccc4[C@@]21O3` (some centres not stated), for which the Relative stability in experiment [1] came to 423%.

In the case of `C=C1C[C@@]23O[C@]2(c2ccccc21)C1CC(OC(=O)[C@H](O)[C@@H](NC(=O)NCCCC)c2ccccc2)C3(C)C1(C)C` (some centres not stated), the Relative stability in experiment [1] worked out at 68%.

Turning to `C=C1C[C@@]23O[C@]2(c2ccccc21)C1CC(OC(=O)[C@H](O)[C@@H](NC(=O)CC)c2ccccc2)C3(C)C1(C)C` (some centres not stated), the Relative stability in experiment [1] was determined as 108%.

For the compound `CC(C)NC(=O)N[C@@H](c1ccccc1)[C@@H](O)C(=O)OC1CC2C(C)(C)C1(C)[C@@]13C[C@H](C)c4ccccc4[C@@]21O3` (some centres not stated), the Relative stability in experiment [1] was found to be 150%.

As to `CCOC(=O)N[C@@H](c1ccsc1)[C@@H](O)C(=O)OC1CC2C(C)(C)C1(C)[C@@]13C[C@@H](C)c4ccccc4[C@@]21O3` (some centres not stated), the Relative stability in experiment [1] turned out to be 58%.

As to `C=C1C[C@@]23O[C@]2(c2ccccc21)C1CC(OC(=O)[C@H](O)[C@@H](NC(=O)OCC)c2ccccc2)C3(C)C1(C)C` (some centres not stated), the Relative stability in experiment [1] was 228%.

Turning to `C=C1C[C@@]23O[C@]2(c2ccccc21)C1CC(OC(=O)[C@H](O)[C@@H](NC(=O)OCC)c2ccc(OC)cc2)C3(C)C1(C)C` (some centres not stated), the Relative stability in experiment [1] was 95%.

As to `C[C@H]1C[C@@]23O[C@]2(c2ccccc21)C1CC(OC(=O)[C@H](O)[C@@H](NC(=O)CCC2CCCC2)c2ccccc2)C3(C)C1(C)C` (some centres not stated), the Relative stability in experiment [1] is 86%.

Consider `CCOC(=O)N[C@@H](c1cccnc1)[C@@H](O)C(=O)OC1CC2C(C)(C)C1(C)[C@@]13C[C@H](C)c4ccccc4[C@@]21O3` (some centres not stated), for which, in experiment [1], the Relative stability was 119%.

As for `CCCC(=O)N[C@@H](c1ccsc1)[C@@H](O)C(=O)OC1CC2C(C)(C)C1(C)[C@@]13CC(C)c4ccccc4[C@@]21O3` (some centres not stated), the Relative stability in experiment [1] is 91%.

For the compound `CCOC(=O)N[C@@H](c1ccncc1)[C@@H](O)C(=O)OC1CC2C(C)(C)C1(C)[C@@]13C[C@@H](C)c4ccccc4[C@@]21O3` (some centres not stated), the Relative stability in experiment [1] was 227%.

Take `C[C@H]1C[C@@]23O[C@]2(c2ccccc21)C1CC(OC(=O)[C@H](O)[C@@H](NC(=O)NC(C)(C)C)c2ccccc2)C3(C)C1(C)C` (some centres not stated): in experiment [1], the Relative stability was found to be 153%.

As to `C=C1C[C@@]23O[C@]2(c2ccccc21)C1CC(OC(=O)[C@H](O)[C@@H](NC(=O)OCC)c2ccsc2)C3(C)C1(C)C` (some centres not stated), the Relative stability in experiment [1] was determined as 788%.

Turning to `CCOC(=O)N[C@@H](c1ccc(F)cc1)[C@@H](O)C(=O)OC1CC2C(C)(C)C1(C)[C@@]13C[C@H](C)c4ccccc4[C@@]21O3` (some centres not stated), in experiment [1], the Relative stability came to 139%.

Turning to `CCOC(=O)N[C@@H](c1cccc(F)c1)[C@@H](O)C(=O)OC1CC2C(C)(C)C1(C)[C@@]13C[C@H](C)c4ccccc4[C@@]21O3` (some centres not stated), the Relative stability in experiment [1] was 139%.

In the case of `C=C1C[C@@]23O[C@]2(c2ccccc21)C1CC(OC(=O)[C@H](O)[C@@H](NC(=O)OCC)c2ccoc2)C3(C)C1(C)C` (some centres not stated), the Relative stability in experiment [1] turned out to be 119%.

With `CC(C)NC(=O)N[C@@H](c1ccsc1)[C@@H](O)C(=O)OC1CC2C(C)(C)C1(C)[C@@]13CC(C)c4ccccc4[C@@]21O3` (some centres not stated), the Relative stability in experiment [1] is 56%.

As to `CCCCOC(=O)N[C@@H](c1ccncc1)[C@@H](O)C(=O)OC1CC2C(C)(C)C1(C)[C@@]13CC(C)c4ccccc4[C@@]21O3` (some centres not stated), the Relative stability in experiment [1] is -3%.

Consider `C=C1C[C@@]23O[C@]2(c2ccccc21)C1CC(OC(=O)[C@H](O)[C@@H](NC(=O)CCC)c2ccccc2)C3(C)C1(C)C` (some centres not stated), for which, in experiment [1], the Relative stability worked out at 114%.

With `C=C1C[C@@]23O[C@]2(c2ccccc21)C1CC(OC(=O)[C@H](O)[C@@H](NC(=O)OCC)c2cccc(F)c2)C3(C)C1(C)C` (some centres not stated), the Relative stability in experiment [1] was determined as 106%.

As for `C=C1C[C@@]23O[C@]2(c2ccccc21)C1CC(OC(=O)[C@H](O)[C@@H](NC(=O)OCCCC)c2ccccc2)C3(C)C1(C)C` (some centres not stated), the Relative stability in experiment [1] came out at 83%.

Take `CCOC(=O)N[C@@H](c1cccs1)[C@@H](O)C(=O)OC1CC2C(C)(C)C1(C)[C@@]13C[C@H](C)c4ccccc4[C@@]21O3` (some centres not stated): the Relative stability in experiment [1] amounted to 311%.
